Data reported in ChEMBL document CHEMBL2146457, “Development of 'DFG-out' inhibitors of gatekeeper mutant kinases” (Bioorg Med Chem Lett, 2012).
pEC50: −log10 of the molar value.

Key:
[1] = Cytotoxicity against wild type mouse BA/F3 cells; type: cell-based; details: BaF3
[2] = Cytotoxicity against mouse BA/F3 cells expressing wild type Bcr-Abl; type: functional, cell-based; details: BaF3
[3] = Cytotoxicity against mouse BA/F3 cells expressing imatinib resistant Bcr-Abl […] mutant; type: functional, cell-based; details: BaF3
[4] = Cmax in rat at 1 mg/kg, iv; type: ADME, organism-based; design: dose 1 mg/kg, route intravenous; details: in vivo
[5] = MRT in rat at 1 mg/kg, iv; type: ADME, organism-based; design: dose 1 mg/kg, route intravenous; details: in vivo
[6] = AUC in rat at 2 mg/kg, po; type: ADME, organism-based; design: dose 2 mg/kg, route oral; details: plasma
[7] = AUC in rat at 1 mg/kg, iv; type: ADME, organism-based; design: dose 1 mg/kg, route intravenous; details: plasma
[8] = Cytotoxicity against mouse parental BA/F3 cells; details: BaF3
Rattus norvegicus = assay: Oral bioavailability in rat at 2 mg/kg; type: ADME, organism-based; details: in vivo
[9] = Volume of distribution at steady state in rat at 1 mg/kg, iv; type: ADME, organism-based; design: dose 1 mg/kg, route intravenous; details: in vivo, read-out: Vdss
[10] = Cmax in rat at 2 mg/kg, po; type: ADME, organism-based; design: dose 2 mg/kg, route oral; details: in vivo
[11] = Clearance in rat at 2 mg/kg, po; type: ADME, organism-based; design: dose 2 mg/kg, route oral; details: in vivo
[12] = Half life in rat at 2 mg/kg, po; type: ADME, organism-based; design: dose 2 mg/kg, route oral; details: in vivo
[13] = MRT in rat at 2 mg/kg, po; type: ADME, organism-based; design: dose 2 mg/kg, route oral; details: in vivo
[14] = Clearance in rat at 1 mg/kg, iv; type: ADME, organism-based; design: dose 1 mg/kg, route intravenous; details: in vivo
[15] = Half life in rat at 1 mg/kg, iv; type: ADME, organism-based; design: dose 1 mg/kg, route intravenous; details: in vivo

Compound | pEC50 [1] | pEC50 [2] | pEC50 [3] | further results
O=C(Nc1ccc(N2CCNCC2)c(C(F)(F)F)c1)c1cccc(-c2ccc3nc(NC(=O)C4CC4)sc3n2)c1 | 5.64 | 5.64 | 5.64 | –
Nc1nc2ccc(-c3cccc(C(=O)Nc4cccc(C(F)(F)F)c4)c3)nc2s1 | < 5.00 | < 5.00 | < 5.00 | –
CC(=O)Nc1nc2ccc(-c3cccc(C(=O)Nc4cccc(C(F)(F)F)c4)c3)nc2s1 | < 5.00 | 5.30 | 5.42 | –
O=C(Nc1cccc(C(F)(F)F)c1)c1cccc(-c2ccc3nc(NC(=O)C4CC4)sc3n2)c1 | 6.04 | 6.38 | 6.02 | –
O=C(Nc1cccc(C(F)(F)F)c1)c1cccc(-c2ccc3nc(NC(=O)C4CCNCC4)sc3n2)c1 | < 5.00 | < 5.00 | < 5.00 | –
CC(=O)N1CCN(CCC(=O)Nc2nc3ccc(-c4cccc(C(=O)Nc5cccc(C(F)(F)F)c5)c4)nc3s2)CC1 | < 5.00 | 5.28 | < 5.00 | –
O=C(Nc1nc2ccc(-c3cccc(C(=O)Nc4cccc(C(F)(F)F)c4)c3)nc2s1)NC1CCNCC1 | < 5.00 | 5.12 | 5.14 | –
Cc1nc(Nc2nc3ccc(-c4cccc(C(=O)Nc5cccc(C(F)(F)F)c5)c4)nc3s2)cc(N2CCNCC2)n1 | 5.17 | 5.72 | 5.62 | –
O=C(Nc1cccc(C(F)(F)F)c1)c1cccc(-c2ccc3nc(Nc4ccc(S(=O)(=O)N5CCNCC5)cc4)sc3n2)c1 | < 5.00 | 5.21 | < 5.00 | –
CCN1CCN(Cc2ccc(NC(=O)c3cccc(-c4ccc5nc(N)sc5n4)c3)cc2C(F)(F)F)CC1 | < 5.00 | < 5.00 | < 5.00 | –
CCN1CCN(Cc2ccc(NC(=O)c3cccc(-c4ccc5nc(NC(C)=O)sc5n4)c3)cc2C(F)(F)F)CC1 | 5.38 | 6.86 | 6.71 | –
CCN1CCN(Cc2ccc(NC(=O)c3cccc(-c4ccc5nc(NC(=O)C6CC6)sc5n4)c3)cc2C(F)(F)F)CC1 | 5.51 | – | 6.81 | Cmax [4]: 292 ng/mL; MRT [5]: 8.1 h; AUC [6]: 462 ng·h/mL; AUC [7]: 1230 ng·h/mL; pEC50 [8]: 5.51; F (Rattus norvegicus): 18.8%; Vd [9]: 6.5 L/kg; Cmax [10]: 53.1 ng/mL; CL/F [11]: 74.4 mL/min/kg; half-life [12]: 282 min; MRT [13]: 7.7 h; clearance [14]: 13.7 mL/min/kg; half-life [15]: 348 min
CCN1CCN(Cc2ccc(NC(=O)c3cccc(-c4ccc5nc(Nc6ccccn6)sc5n4)c3)cc2C(F)(F)F)CC1 | 5.45 | 6.84 | 6.56 | –
O=C(Nc1ccc(-n2ccnc2)cc1)c1cccc(-c2ccc3nc(NC(=O)C4CC4)sc3n2)c1 | < 5.00 | < 5.00 | < 5.00 | –
Cc1cn(-c2cc(NC(=O)c3cccc(-c4ccc5nc(NC(=O)C6CC6)sc5n4)c3)cc(C(F)(F)F)c2)cn1 | 5.70 | 6.42 | 6.72 | Cmax [4]: 672 ng/mL; MRT [5]: 3.1 h; AUC [6]: 136 ng·h/mL; AUC [7]: 1850 ng·h/mL; F (Rattus norvegicus): 3.7%; Vd [9]: 1.7 L/kg; Cmax [10]: 32 ng/mL; CL/F [11]: 303 mL/min/kg; half-life [12]: 222 min; MRT [13]: 5.3 h; clearance [14]: 9.5 mL/min/kg; half-life [15]: 144 min
CCN1CCN(Cc2ccc(NC(=O)c3ccc(C)c(-c4ccc5nc(NC(=O)C6CC6)sc5n4)c3)cc2C(F)(F)F)CC1 | 5.91 | 9.00 | 7.22 | –
Cc1cn(-c2cc(NC(=O)c3ccc(C)c(-c4ccc5nc(NC(=O)C6CC6)sc5n4)c3)cc(C(F)(F)F)c2)cn1 | 5.33 | 7.52 | 6.25 | –
CCN1CCN(Cc2ccc(NC(=O)c3ccc(F)c(-c4ccc5nc(NC(=O)C6CC6)sc5n4)c3)cc2C(F)(F)F)CC1 | < 5.00 | 7.70 | 6.52 | –
Cc1cn(-c2cc(NC(=O)c3ccc(F)c(-c4ccc5nc(NC(=O)C6CC6)sc5n4)c3)cc(C(F)(F)F)c2)cn1 | < 5.00 | 7.70 | 6.23 | –
CCN1CCN(Cc2ccc(C(=O)Nc3cccc(-c4ccc5nc(NC(=O)C6CC6)sc5n4)c3)cc2C(F)(F)F)CC1 | < 5.00 | 6.70 | 6.11 | –
CCN1CCN(Cc2ccc(NC(=O)Nc3cccc(-c4ccc5nc(NC(=O)C6CC6)sc5n4)c3)cc2C(F)(F)F)CC1 | 6.16 | 7.74 | 7.89 | –
Cc1cn(-c2cc(NC(=O)Nc3cccc(-c4ccc5nc(NC(=O)C6CC6)sc5n4)c3)cc(C(F)(F)F)c2)cn1 | < 5.00 | 5.91 | 6.26 | –
